No end group written: not given here.
Columns and labels:
Type in all cases: biochemical
[1] = Identification of oxidation resistance by ABTS+ method (Trolox standard); set-up: Total antioxidant capacity: unit not given here; conditions: for Total antioxidant capacity: ABTS+ method, sample 5 mg/mL, Trolox standard curve, 734 nm; for Increased multiple, compared with selenium-chelating pea oligopeptide: ratio of total antioxidant capacity
Excerpt: 9.2 Identification of Oxidation Resistance of Peptide Segment

[2] = Determination of capacity to scavenge DPPH free radicals; conditions: positive control; FIG. 10
Procedure: 8.1 Determination of Capacity to Scavenge DPPH Free Radicals
Samples in different concentrations are taken and mixed with DPPH-anhydrous ethanol solution ([…]) in a volume ratio of 1:1, and stored for 30 min under a dark condition, and the absorbance of the mixed solution is measured at 517 nm in ultraviolet-visible spectrum, and recorded as Ai. Correspondingly, sample solutions in different mass concentrations are evenly mixed with anhydrous ethanol solution in a volume ratio of 1:1, and stored for 30 min under a dark condition at room temperature, and the absorbance of the mixed solution is measured at 517 nm in ultraviolet-visible spectrum, and recorded as Aj. Distilled water is evenly mixed with DPPH-anhydrous ethanol solution ([…]) in a volume ratio of 1:1, and stored for 30 min under a dark condition at room temperature, and the absorbance is measured at 517 nm in ultraviolet-visible spectrum, and recorded as Ac. Experiment of each group is repeated three times, and average values are obtained and standard deviations are calculated. The sodium selenite and the pea oligopeptide are used as raw material controls before chelation, and ascorbic acid is used as a positive control, the scavenging rate of the sample on DPPH free radicals is calculated according to the following formula:
(§1) [formula] 8.2 Determination of Capacity to Scavenge OH Free Radicals

[3] = Determination of capacity to scavenge OH free radicals; conditions: positive control; FIG. 12
Procedure: as §1
Sample solutions in different concentrations are taken and evenly mixed with FeSO4 ([…]) and salicylic acid-anhydrous ethanol solution ([…]) in a volume ratio of 1:2:2, the reaction is started with 1 volume of H2O2 solution ([…]), reacting in a water bath at 37° C. for 1 h, and the absorbance is measured at 510 nm in ultraviolet-visible spectrum, and recorded as A2. Correspondingly, the H2O2 solution ([…]) is replaced with 1 volume of water, and the ratio of remaining reagents remains unchanged, reacting in a water bath at 37° C. for 1 h, and the absorbance is measured at 510 nm in ultraviolet-visible spectrum, and recorded as A20. The sample solution is replaced with distilled water, and the ratio of remaining reagents remains unchanged, reacting in a water bath at 37° C. for 1 h, and the absorbance is measured at 510 nm, and recorded as A02. Experiment of each group is repeated three times, and average values are obtained and standard deviations are calculated. The sodium selenite and the pea oligopeptide are used as raw material controls before chelation, and ascorbic acid is used as a positive control, the scavenging rate of the sample on OH free radicals is calculated according to the following formula:
(§2) [formula] 8.3 Determination of Reducing Capacity

[4] = Determination of reducing capacity (K3[Fe(CN)6]/FeCl3, absorbance at 700 nm); conditions: absorbance at 700 nm about 1.6; FIG. 14
Procedure: as §2
Sample solutions in different concentrations are taken and evenly mixed with phosphate buffer (0.2 mol/L, pH 6.6) and K3[Fe(CN)6] solution with a mass concentration of 1% in a volume ratio of 1:1:1, stored in a water bath at 50° C. for 10 min, and quickly cooled with cold water. 1 volume of trichloroacetic acid solution with a mass concentration of 10% is added, shaken well quickly and thoroughly under a dark condition, and then 1 volume of reaction mixture is taken out, and added with 1 volume of distilled water and 0.2 volume of FeCl3 solution with a mass concentration of 0.1%, and after shaking well quickly and thoroughly under a dark condition, standing for 10 min, the absorbance is measured at 700 nm, and recorded as A3. The sodium selenite and the pea oligopeptide are used as raw material controls before chelation, and ascorbic acid is used as an overall control, the absorbance A3 is directly used as a parameter of the reducing capacity of the sample. Experiment of each group is repeated three times, and average values are obtained and standard deviations are calculated.

## HQMPKP [standard synthetic peptide segment identified in the selenium-chelating pea oligopeptide]
[1]
  Total antioxidant capacity: −9.53

## O=C1O[C@H]([C@@H](O)CO)C(O)=C1O [ascorbic acid]
[2]
  IC50 value of scavenging DPPH free radical: 4.85 ± 0.02 µg/mL
[3]
  IC50 value of scavenging OH free radical: 1024.87 ± 5.96 µg/mL
[4]
  Required concentration for absorbance value about 1.6 (reducing capacity): 400 µg/mL

## TGRGAP [standard synthetic peptide segment identified in the selenium-chelating pea oligopeptide]
[1]
  Total antioxidant capacity: 3.25
  Increased multiple, compared with selenium-chelating pea oligopeptide: 0.06

## Thr-Ser-Ser-Leu-Pro (TSSLP; listed as Pisum sativum) [standard synthetic peptide segment identified in the selenium-chelating pea oligopeptide]
[1]
  Total antioxidant capacity: 5.55
  Increased multiple, compared with selenium-chelating pea oligopeptide: 0.10

## PPKIYP [standard synthetic peptide segment identified in the selenium-chelating pea oligopeptide]
[1]
  Total antioxidant capacity: 211.12
  Increased multiple, compared with selenium-chelating pea oligopeptide: 3.90

Source: patent US12252555B2 (CHINA NATIONAL RESEARCH INSTITUTE OF FOOD & FERMENTATION …, priority 2018, dated 2025)
